Earlier results in patent US20250268979A1, “COMBINATION OF MACROCYCLIC CFTR MODULATORS WITH CFTR CORRECTORS AND / OR CFTR POTENTIATORS” (Idorsia Pharmaceuticals Ltd, priority 2022, published 2025).
Like-named read-outs stand apart in the source and are kept apart here. Blank lines part the entries; values can stand above or below the molecule they belong to.

Legend:
[1] = tested on: CF patients carrying at least one F508del-CFTR allele
[2] = tested on: CF patients with ivacaftor-responsive CFTR mutations; settings: for mean ctrough plasma concentration: 4 weeks of treatment; for absolute change from baseline in sweat chloride compared to ivacaftor 150 mg b.i.d. / ppFEV1 treatment difference versus ivacaftor 150 mg b.i.d.: 12 weeks
[3] = tested on: F508del-CFTR homozygous patients; settings: Keating, 2018
F508del-CFTR [4] = biological target: T1, F508del-CFTR (Homo sapiens, UniProt P13569, DEL508-508); settings: homozygous F508del-CFTR doners; in the presence of potentiator GLPG1837
T1 construct: from tissue; host or cells: reconstituted bronchial epithelium from CF patients
T1 sequence (P13569 with tags, fused parts or gaps DEL508-508): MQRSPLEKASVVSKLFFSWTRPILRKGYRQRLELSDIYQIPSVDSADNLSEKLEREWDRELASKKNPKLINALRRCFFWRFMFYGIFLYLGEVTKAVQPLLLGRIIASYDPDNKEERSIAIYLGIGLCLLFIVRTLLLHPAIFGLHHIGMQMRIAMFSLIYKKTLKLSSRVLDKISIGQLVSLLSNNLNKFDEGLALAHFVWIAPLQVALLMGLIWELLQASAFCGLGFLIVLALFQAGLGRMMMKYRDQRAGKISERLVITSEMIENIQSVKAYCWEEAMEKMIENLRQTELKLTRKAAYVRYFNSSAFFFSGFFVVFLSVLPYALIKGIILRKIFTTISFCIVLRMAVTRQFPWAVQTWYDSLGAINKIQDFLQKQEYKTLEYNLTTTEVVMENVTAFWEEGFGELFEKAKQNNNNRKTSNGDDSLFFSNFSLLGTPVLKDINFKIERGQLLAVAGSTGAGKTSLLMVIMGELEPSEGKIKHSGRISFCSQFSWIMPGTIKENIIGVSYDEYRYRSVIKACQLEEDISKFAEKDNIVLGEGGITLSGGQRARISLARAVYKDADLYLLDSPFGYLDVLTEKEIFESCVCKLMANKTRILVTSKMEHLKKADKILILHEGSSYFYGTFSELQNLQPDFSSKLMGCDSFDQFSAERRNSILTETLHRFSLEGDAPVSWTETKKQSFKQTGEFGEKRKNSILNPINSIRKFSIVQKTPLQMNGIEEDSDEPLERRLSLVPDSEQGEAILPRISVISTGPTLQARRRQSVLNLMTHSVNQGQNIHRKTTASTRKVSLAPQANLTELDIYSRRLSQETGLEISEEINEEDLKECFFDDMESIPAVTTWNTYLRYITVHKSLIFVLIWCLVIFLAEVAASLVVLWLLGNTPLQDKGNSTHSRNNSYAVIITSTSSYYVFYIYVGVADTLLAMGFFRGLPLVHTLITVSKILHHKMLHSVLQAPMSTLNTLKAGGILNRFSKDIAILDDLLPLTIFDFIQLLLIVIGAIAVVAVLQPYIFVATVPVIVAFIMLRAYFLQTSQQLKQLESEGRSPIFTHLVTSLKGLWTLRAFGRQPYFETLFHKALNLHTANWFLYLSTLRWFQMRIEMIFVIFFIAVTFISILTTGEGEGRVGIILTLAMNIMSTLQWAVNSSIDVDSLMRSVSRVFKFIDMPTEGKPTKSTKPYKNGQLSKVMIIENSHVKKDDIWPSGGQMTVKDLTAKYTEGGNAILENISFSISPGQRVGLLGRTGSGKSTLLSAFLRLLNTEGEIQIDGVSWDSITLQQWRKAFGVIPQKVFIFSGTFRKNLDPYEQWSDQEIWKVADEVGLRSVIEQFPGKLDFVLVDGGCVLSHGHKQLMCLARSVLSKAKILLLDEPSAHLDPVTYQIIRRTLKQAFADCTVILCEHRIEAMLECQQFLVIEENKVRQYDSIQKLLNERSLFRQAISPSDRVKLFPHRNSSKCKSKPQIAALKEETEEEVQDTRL

[5] = tested on: CF patients homozygous for the F508del-CFTR mutation
[6] = tested on: CF patients carrying class III, IV CFTR mutations on one allele
healthy volunteers = settings: up to 1000 mg following SAD and up to 750 mg b.i.d. following MAD
[7] = tested on: patients with moderate to severe COPD and symptoms of chronic bronchitis; settings: 300 mg b.i.d., 4 weeks
[8] = tested on: patients homozygous for the F508del-CFTR mutation; settings: 450 mg b.i.d.
F508del-CFTR [9] = biological target: T1, F508del-CFTR
[10] = 14 days, PTI-801 600 mg triple combination
[11] = patients predisposed to rapid pulmonary decline, combo regimen with 600 mg PTI-801

SMILES: Cc1c(-c2cc(C(=O)O)c3c(O[C@H](C)C4CCOCC4)ccc(C)c3n2)oc2ccccc12 [PTI-801]
decrease in sweat chloride compared with before treatment [1, 10]: 19 mM | decrease in sweat chloride compared with placebo [1, 10]: 24 mM | increase in mean absolute ppFEV1 compared with before the treatment ([1]; 14 days, PTI-801 600 mg with PTI-808 150 mg and PTI-428 30 mg): 5% | improvement in ppFEV1 compared with before treatment [1, 11]: 6% | improvement in ppFEV1 compared with placebo [1, 11]: 8%

SMILES: [2H]C([2H])([2H])C(c1cc(C(C)(C)C)c(NC(=O)c2c[nH]c3ccccc3c2=O)cc1O)(C([2H])([2H])[2H])C([2H])([2H])[2H] [deutivacaftor, N-[2-tert-butyl-4-[1,1,1,3,3,3-hexadeuterio-2-(trideuteriomethyl)propan-2-yl]-5-hydroxyphenyl]-4-oxo-1H-quinoline-3-carboxamide]
mean ctrough plasma concentration ([2]; 150 mg once daily): 458 ng/mL | absolute change from baseline in sweat chloride compared to ivacaftor 150 mg b.i.d. ([2]; 150 mg once daily): +2.4 mM | ppFEV1 treatment difference versus ivacaftor 150 mg b.i.d. ([2]; 150 mg once daily): +3.9% | mean ctrough plasma concentration ([2]; 250 mg once daily): 1100 ng/mL | absolute change from baseline in sweat chloride compared to ivacaftor 150 mg b.i.d. ([2]; 250 mg once daily): -7.4 mM | ppFEV1 treatment difference versus ivacaftor 150 mg b.i.d. ([2]; 250 mg once daily): +3.5%

SMILES: Cc1nn(C)cc1S(=O)(=O)NC(=O)c1ccc(-n2ccc(OCC(C)(C)C(F)(F)F)n2)nc1N1C[C@@H](C)CC1(C)C [elexacaftor, N-(1,3-dimethyl-1H-pyrazole-4-sulfonyl)-6-[3-(3,3,3-trifluoro-2,2-dimethylpropoxy)-1H-pyrazol-1-yl]-2-[(4S)-2,2,4-trimethylpyrrolidin-1-yl]pyridine-3-carboxamide]
ppFEV1 increase on adding to basal treatment of tezacaftor+ivacaftor (SYMDEKO) [3]: 10%

SMILES: COc1nc(C(=O)NC[C@](C)(O)C(F)(F)F)c(N)cc1C(F)(F)F [icenticaftor, 3-Amino-6-methoxy-N-[(2S)-3,3,3-trifluoro-2-hydroxy-2-methylpropyl]-5-(trifluoromethyl)pyridine-2-carboxamide]
LCI2.5 compared to placebo ([6]; 450 mg b.i.d., 14 days): −1.13 | ppFEV1 increase versus placebo ([6]; 450 mg b.i.d., 14 days): 6.5% | sweat chloride concentration versus placebo ([6]; 450 mg b.i.d., 14 days): -8.4 mM | tolerability in CF patients ([6]; 150 and 450 mg b.i.d., across all patient sub-groups): well tolerated | tolerability (healthy volunteers): well tolerated | LCI2.5 compared to placebo [7]: did not change | sweat chloride compared to placebo ([7]; average baseline 23 mM): -5.04 mM | FEV1 compared to placebo ([7]; average baseline 1.4-1.5 L): 0.05 to 0.06 L | plasma fibrinogen compared to placebo ([7]; average baseline 3.2 g/L): -0.39 g/L | sweat chloride and lung function [8]: no reduction in sweat chloride or improvement in lung function

Now from value to molecule, other results behind:

galicaftor exposure in the presence of two different doses of navocaftor (healthy subjects; in vivo): similar | EC50 (F508del-CFTR [4]): 5 nM
SMILES: O=C(O)c1ccc([C@H]2C[C@@H](NC(=O)C3(c4ccc5c(c4)OC(F)(F)O5)CC3)c3ccc(OC(F)F)cc3O2)cc1 [galicaftor, 4-[(2R,4R)-4-({[1-(2,2-Difluoro-1,3-benzodioxol-5-yl)cyclopropyl]carbonyl}amino)-7-(difluoromethoxy)-3,4-dihydro-2H-chromen-2-yl]benzoic Acid]
change in sweat chloride versus placebo ([5]; 200 mg dose group, day 29): -15.8 mM | tolerability and safety ([5]; 4 weeks, once-daily 50, 100, 200 and 400 mg): well tolerated and safe | change from baseline in CFQ-R score versus placebo ([5]; day 29): No significant changes versus placebo | change from baseline in ppFEV1 versus placebo ([5]; day 29): No significant changes versus placebo

further augmentation of function on addition to tezacaftor and elexacaftor (F508del-CFTR [9]; Keating, 2018): 2 fold | augmentation of CFTR function on addition to lumacaftor-corrected F508del-CFTR (F508del-CFTR [9]; van Goor, 2011): almost two-fold | mean ctrough plasma concentration ([2]; 150 mg b.i.d.): 952 ng/mL
SMILES: CC(C)(C)c1cc(C(C)(C)C)c(NC(=O)c2c[nH]c3ccccc3c2=O)cc1O [ivacaftor, N-(2,4-di-tert-butyl-5-hydroxyphenyl)-1,4-dihydro-4-oxoquinoline-3-carboxamide]

navocaftor exposure in the presence of galicaftor (healthy subjects; in vivo): not apparently altered
SMILES: Nc1cc(S(=O)(=O)c2ccc(OC(F)(F)F)cc2)cnc1-c1nnc(CO)o1 [navocaftor, (5-(3-Amino-5-((4-(trifluoromethoxy)phenyl)sulfonyl)pyridin-2-yl)-1,3,4-oxadiazol-2-yl) methanol]
tolerability (healthy subjects; up to 1000 mg single dose and up to 500 mg b.i.d. for 14 days): generally well tolerated
